Paper doi:10.1101/2023.10.20.563248v1 (biorxiv, 2023)

How the values were obtained:
Conditions in all cases: 1 µM; inhibitor
CLK1 = CLK1 (Homo sapiens, UniProt P49759)
MAP3K9 = MAP3K9 (Homo sapiens, UniProt P80192)
MARK1 = MARK1 (Homo sapiens, UniProt Q9P0L2)
CAMK2D = CAMK2D (Homo sapiens, UniProt Q13557)
FYN = FYN (Homo sapiens, UniProt P06241)
ERK7 = ERK7 (Homo sapiens, UniProt Q8TD08)
JNK2 = JNK2 (Homo sapiens, UniProt P45984)
NEK4 = NEK4 (Homo sapiens, UniProt P51957)
EIF2AK3 = EIF2AK3 (Homo sapiens, UniProt Q9NZJ5)
JNK1 = JNK1 (Homo sapiens, UniProt P45983)
CAMK2A = CAMK2A (Homo sapiens, UniProt Q9UQM7)
EPHB1 = EPHB1 (Homo sapiens, UniProt P54762)
CDK7 = CDK7 (Homo sapiens, UniProt P50613)
p38a = p38a (Homo sapiens, UniProt Q16539)
PKCmu = PKCmu (Homo sapiens, UniProt Q15139)
CAMKK1 = CAMKK1 (Homo sapiens, UniProt Q8N5S9)
CDK4 = CDK4 (Homo sapiens, UniProt P11802)
ERK2 = ERK2 (Homo sapiens, UniProt P28482)
CSF1R = CSF1R (Homo sapiens, UniProt P07333)
SRPK2 = SRPK2 (Homo sapiens, UniProt P78362)
PKN3 = PKN3 (Homo sapiens, UniProt Q6P5Z2)
WNK1 = WNK1 (Homo sapiens, UniProt Q9H4A3)
CAMK1D = CAMK1D (Homo sapiens, UniProt Q8IU85)
ACVR2A = ACVR2A (Homo sapiens, UniProt P27037)
TLK1 = TLK1 (Homo sapiens, UniProt Q9UKI8)
p38g = p38g (Homo sapiens, UniProt P53778)
TXK = TXK (Homo sapiens, UniProt P42681)
PRKG1 = PRKG1 (Homo sapiens, UniProt Q13976)
RPS6KA3 = RPS6KA3 (Homo sapiens, UniProt P51812)
JAK3 = JAK3 (Homo sapiens, UniProt P52333)
MEKK2 = MEKK2 (Homo sapiens, UniProt Q9Y2U5)

Sequence of PRKG1 (Q13976 whole entry): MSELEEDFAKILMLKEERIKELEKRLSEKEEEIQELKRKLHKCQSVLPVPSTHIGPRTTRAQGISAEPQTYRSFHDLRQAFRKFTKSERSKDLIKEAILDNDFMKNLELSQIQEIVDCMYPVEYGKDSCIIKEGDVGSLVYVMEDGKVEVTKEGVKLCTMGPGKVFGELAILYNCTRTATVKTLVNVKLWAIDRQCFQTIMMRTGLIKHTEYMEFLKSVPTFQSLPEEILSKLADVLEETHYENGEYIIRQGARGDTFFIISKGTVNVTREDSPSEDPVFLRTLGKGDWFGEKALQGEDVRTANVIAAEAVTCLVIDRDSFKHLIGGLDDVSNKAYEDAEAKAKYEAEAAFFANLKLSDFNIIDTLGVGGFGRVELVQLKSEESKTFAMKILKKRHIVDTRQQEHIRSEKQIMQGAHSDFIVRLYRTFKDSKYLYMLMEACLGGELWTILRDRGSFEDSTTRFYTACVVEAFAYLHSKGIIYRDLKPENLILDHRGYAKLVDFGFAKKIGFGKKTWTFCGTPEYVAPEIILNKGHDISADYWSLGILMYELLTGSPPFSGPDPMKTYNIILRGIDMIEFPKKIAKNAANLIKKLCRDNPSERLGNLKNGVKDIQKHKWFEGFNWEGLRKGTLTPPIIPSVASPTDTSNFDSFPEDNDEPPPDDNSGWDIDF
Sequence of CAMK2A (Q9UQM7 whole entry): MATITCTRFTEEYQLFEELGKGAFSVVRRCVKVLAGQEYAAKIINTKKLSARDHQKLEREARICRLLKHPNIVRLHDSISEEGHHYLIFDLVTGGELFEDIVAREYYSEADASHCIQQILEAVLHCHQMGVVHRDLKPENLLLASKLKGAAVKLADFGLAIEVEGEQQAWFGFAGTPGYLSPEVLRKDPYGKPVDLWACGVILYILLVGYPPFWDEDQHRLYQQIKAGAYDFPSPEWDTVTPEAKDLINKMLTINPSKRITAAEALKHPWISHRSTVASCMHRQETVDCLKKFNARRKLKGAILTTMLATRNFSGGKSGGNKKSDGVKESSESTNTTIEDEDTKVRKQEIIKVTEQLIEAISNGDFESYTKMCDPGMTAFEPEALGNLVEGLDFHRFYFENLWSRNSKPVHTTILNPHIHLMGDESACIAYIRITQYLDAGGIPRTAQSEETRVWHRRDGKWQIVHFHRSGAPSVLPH
Sequence of FYN (P06241 whole entry): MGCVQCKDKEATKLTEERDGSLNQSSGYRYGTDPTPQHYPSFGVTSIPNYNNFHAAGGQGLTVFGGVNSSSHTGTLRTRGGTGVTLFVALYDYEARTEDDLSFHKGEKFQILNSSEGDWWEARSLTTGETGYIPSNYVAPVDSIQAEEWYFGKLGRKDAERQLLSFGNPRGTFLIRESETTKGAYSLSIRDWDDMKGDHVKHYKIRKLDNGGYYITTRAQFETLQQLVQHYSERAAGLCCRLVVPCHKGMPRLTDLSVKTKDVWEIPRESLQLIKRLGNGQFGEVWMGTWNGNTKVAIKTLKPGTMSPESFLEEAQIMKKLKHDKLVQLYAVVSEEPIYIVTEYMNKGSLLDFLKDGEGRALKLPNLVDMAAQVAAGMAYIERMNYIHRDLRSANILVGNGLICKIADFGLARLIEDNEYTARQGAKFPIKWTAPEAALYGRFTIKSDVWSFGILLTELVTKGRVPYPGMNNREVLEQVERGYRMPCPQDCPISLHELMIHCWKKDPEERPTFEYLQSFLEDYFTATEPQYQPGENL
Sequence of TLK1 (Q9UKI8 whole entry): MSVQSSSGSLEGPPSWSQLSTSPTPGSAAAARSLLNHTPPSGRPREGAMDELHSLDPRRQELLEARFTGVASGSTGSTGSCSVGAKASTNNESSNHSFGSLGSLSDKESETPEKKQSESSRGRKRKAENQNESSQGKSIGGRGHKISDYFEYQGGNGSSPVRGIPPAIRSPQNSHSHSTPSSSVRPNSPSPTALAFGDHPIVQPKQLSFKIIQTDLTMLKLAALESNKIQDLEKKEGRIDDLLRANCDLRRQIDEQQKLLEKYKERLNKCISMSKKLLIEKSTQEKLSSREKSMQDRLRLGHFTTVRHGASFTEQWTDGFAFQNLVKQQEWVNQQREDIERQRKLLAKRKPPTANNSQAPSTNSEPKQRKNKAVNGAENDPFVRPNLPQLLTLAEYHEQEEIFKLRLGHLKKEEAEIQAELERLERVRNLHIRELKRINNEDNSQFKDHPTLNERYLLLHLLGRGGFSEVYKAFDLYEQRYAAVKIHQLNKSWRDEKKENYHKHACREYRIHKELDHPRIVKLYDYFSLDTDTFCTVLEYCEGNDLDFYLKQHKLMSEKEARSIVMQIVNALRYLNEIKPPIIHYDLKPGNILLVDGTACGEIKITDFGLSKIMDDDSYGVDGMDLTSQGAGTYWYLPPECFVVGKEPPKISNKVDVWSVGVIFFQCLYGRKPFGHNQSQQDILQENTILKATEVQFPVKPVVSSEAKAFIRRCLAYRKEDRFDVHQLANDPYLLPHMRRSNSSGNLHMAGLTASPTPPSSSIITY
Sequence of JNK2 (P45984 whole entry): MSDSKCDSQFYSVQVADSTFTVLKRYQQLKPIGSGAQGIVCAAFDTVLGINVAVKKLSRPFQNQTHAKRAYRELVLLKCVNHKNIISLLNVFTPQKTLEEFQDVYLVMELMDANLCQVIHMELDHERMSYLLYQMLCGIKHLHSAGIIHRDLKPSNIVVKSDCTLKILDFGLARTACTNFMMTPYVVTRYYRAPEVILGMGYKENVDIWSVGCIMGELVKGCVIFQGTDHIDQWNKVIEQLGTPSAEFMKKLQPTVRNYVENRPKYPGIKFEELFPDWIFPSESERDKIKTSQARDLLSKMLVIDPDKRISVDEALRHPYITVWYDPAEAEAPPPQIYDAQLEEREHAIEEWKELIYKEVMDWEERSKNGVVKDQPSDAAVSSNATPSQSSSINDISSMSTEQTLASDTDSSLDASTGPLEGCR
Sequence of SRPK2 (P78362 whole entry): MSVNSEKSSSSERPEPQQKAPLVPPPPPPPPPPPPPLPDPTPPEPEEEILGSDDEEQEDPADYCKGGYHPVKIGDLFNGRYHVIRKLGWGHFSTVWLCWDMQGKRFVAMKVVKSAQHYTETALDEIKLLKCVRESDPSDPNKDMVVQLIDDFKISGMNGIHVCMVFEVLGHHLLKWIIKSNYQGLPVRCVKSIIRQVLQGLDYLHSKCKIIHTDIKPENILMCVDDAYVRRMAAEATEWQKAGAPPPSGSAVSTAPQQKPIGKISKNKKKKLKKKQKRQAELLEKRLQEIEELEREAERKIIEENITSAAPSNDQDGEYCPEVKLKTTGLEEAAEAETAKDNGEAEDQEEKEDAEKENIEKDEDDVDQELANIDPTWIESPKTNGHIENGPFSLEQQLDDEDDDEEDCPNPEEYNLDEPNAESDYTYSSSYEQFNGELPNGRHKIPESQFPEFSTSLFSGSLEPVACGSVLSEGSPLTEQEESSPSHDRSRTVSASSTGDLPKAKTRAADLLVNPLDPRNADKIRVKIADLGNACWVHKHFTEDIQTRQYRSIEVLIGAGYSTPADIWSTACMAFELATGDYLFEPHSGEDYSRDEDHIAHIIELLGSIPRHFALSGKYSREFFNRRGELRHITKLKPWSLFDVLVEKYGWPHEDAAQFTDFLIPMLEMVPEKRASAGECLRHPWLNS
Sequence of CAMKK1 (Q8N5S9 whole entry): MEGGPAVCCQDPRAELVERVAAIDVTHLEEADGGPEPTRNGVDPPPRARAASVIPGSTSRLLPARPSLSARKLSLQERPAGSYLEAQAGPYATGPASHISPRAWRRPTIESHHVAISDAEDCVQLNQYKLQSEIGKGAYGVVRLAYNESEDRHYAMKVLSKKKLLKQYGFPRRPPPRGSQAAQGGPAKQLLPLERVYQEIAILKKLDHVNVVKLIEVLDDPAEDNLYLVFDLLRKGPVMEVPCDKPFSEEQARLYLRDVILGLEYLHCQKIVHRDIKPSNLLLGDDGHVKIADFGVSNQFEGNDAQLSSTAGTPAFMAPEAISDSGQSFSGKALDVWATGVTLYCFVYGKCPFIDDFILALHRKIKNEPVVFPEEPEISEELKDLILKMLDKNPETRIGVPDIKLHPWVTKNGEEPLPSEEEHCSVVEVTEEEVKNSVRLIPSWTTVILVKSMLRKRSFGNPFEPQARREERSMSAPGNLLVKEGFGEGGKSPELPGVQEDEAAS
Sequence of CSF1R (P07333 whole entry): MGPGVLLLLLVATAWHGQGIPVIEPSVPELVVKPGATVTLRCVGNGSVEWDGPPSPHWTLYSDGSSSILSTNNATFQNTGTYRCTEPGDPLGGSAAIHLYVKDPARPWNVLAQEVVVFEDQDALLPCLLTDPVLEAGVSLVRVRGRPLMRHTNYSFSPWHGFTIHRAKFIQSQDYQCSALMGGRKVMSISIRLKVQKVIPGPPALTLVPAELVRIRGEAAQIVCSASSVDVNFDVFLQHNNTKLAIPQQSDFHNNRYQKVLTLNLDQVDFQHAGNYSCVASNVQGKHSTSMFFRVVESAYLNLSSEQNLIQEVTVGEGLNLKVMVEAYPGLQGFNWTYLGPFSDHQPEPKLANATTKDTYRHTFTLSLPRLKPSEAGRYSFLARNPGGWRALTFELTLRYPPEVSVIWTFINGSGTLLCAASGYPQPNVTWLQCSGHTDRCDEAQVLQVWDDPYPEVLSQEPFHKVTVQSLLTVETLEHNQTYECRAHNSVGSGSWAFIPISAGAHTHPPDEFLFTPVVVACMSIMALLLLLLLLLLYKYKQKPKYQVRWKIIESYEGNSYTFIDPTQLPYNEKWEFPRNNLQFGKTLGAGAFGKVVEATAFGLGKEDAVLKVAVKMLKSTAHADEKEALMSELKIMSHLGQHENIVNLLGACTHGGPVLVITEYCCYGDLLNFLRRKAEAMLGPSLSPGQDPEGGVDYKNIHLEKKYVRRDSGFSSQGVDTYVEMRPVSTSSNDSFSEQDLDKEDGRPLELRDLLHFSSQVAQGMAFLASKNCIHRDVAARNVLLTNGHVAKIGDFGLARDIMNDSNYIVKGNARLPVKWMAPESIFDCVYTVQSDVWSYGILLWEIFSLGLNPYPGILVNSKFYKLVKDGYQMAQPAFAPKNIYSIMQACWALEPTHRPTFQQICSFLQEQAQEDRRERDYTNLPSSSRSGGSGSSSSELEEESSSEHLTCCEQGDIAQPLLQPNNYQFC

21c Remaining activity, percent of control [%] (CLK1): 79.0%
21c Remaining activity, percent of control [%] (MAP3K9): 95.7%
21c Remaining activity, percent of control [%] (MARK1): 96.0%
21c Remaining activity, percent of control [%] (CAMK2D): 95.0%
21c Remaining activity, percent of control [%] (FYN): 56.6%
21c Remaining activity, percent of control [%] (JNK2): 84.0%
21c Remaining activity, percent of control [%] (NEK4): 103.8%
21c Remaining activity, percent of control [%] (EIF2AK3): 87.8%
21c Remaining activity, percent of control [%] (JNK1): 95.6%
21c Remaining activity, percent of control [%] (CAMK2A): 110.6%
21c Remaining activity, percent of control [%] (EPHB1): 77.1%
21c Remaining activity, percent of control [%] (CDK7): 112.5%
21c Remaining activity, percent of control [%] (p38a): 92.7%
21c Remaining activity, percent of control [%] (PKCmu): 96.1%
21c Remaining activity, percent of control [%] (CAMKK1): 94.6%
21c Remaining activity, percent of control [%] (CDK4): 84.5%
21c Remaining activity, percent of control [%] (ERK2): 90.7%
21c Remaining activity, percent of control [%] (CSF1R): 90.9%
21c Remaining activity, percent of control [%] (SRPK2): 97.0%
21c Remaining activity, percent of control [%] (PKN3): 92.6%
21c Remaining activity, percent of control [%] (WNK1): 94.9%
21c Remaining activity, percent of control [%] (CAMK1D): 103.0%
21c Remaining activity, percent of control [%] (ACVR2A): 95.3%
21c Remaining activity, percent of control [%] (TLK1): 92.4%
21c Remaining activity, percent of control [%] (p38g): 88.6%
21c Remaining activity, percent of control [%] (TXK): 98.2%
21c Remaining activity, percent of control [%] (PRKG1): 94.8%
21c Remaining activity, percent of control [%] (RPS6KA3): 87.3%
21c Remaining activity, percent of control [%] (JAK3): 115.4%
21c Remaining activity, percent of control [%] (MEKK2): 103.5%
Structure (SMILES): O=C1NCCCCCNc2nc(c3ccccc3n2)Nc2cc1[nH]n2 [21c, (Z)-3^1H-2,5,11-triaza-1(4,2)-quinazolina-3(3,5)-pyrazolacycloundecaphan-4-one]
21c Remaining activity, percent of control [%] (ERK7): 90.2%
